Entries after “also recorded” stand apart in the source; their conditions may differ.
Legend:
[1] = test system: primary PGC-1α/β KO myotubes; experiment: NMN with or without HIF stabilizing compounds in PGC-1α/β KO myotubes, qPCR of mitochondrially-encoded ETC genes; assay type: cell-based, mouse
Protocol: As a functional test of whether NMN reverses genome asynchrony by depleting cells of HIF-1α, primary PGC-1α/β KO myotubes were incubated with NMN in the presence and absence of the HIF stabilizing compounds DMOG and DFO. […] Primary myoblasts cells were isolated from WT, SIRT1 KO (Price et al., 2012) and PGC-1α/β KO (Zechner et al., 2010) mice as previously described (Price et al., 2012). WT and PGC-1α/β KO primary myoblasts were plated and allowed to differentiate into myotubes by replacing the media with low glucose DMEM supplemented with 2% horse serum (Sigma-Aldrich) for 4 days. After the differentiation the cells were infected with empty vector or flag-SIRT1 adenovirus as described before ([…] al., 2007). Media was replaced with fresh DMEM supplemented with 2% horse serum (Sigma-Aldrich) for an additional 48 hr and, after that the cells were harvested for the different assays as described. […] Quantitative RT-PCR reactions were performed using 1 μM of primers and LightCycler® 480 SYBR Green Master (Roche) on an LightCycler® 480 detection system (Roche). Calculations were performed by a comparative method (2-ΔCT) using 18S as an internal control. For mtDNA analysis, total DNA was extracted with DNeasy blood and tissue kit (Qiagen). mtDNA was amplified using primers specific for the mitochondrial cytochrome c oxidase subunit 2 (COX2) gene and normalized to genomic DNA by amplification of the ribosomal protein s18 (rps18) nuclear gene. Primers were designed using the IDT software (IDT) and the primer sequences can be found in Table 1.

[2] = test system: 6- and 22-month-old C57BL/6J mice; experiment: NMN treatment of 6- and 22-month-old mice, skeletal muscle readouts; assay type: in vivo, mouse; conditions: NMN for one week
Description: C57BL/6J mice of 6, 22, or 30 months of age were obtained from the National Institutes of Aging mouse aging colony. Additionally 22 months old caloric restricted mice were also obtained from the National Institutes of Aging mouse aging colony. EGLN1 KO, SIRT1 KO and SIRT1 OE mice were generated as previously described (Minamishima et al., 2008; Price et al., 2012). Mice were acclimated for at least one-week prior to sacrifice. 3, 6, 22 and 24-month-old mice were given interperitoneal (IP) injections of 500 mg NMN/kg body weight per day or the equivalent volume of PBS for 7 consecutive days at 5:00 pm and 7:00 am on day 8 and sacrificed 4 hr after last injection.
Cytochrome c oxidase activity was polarographically determined based on the 02 consumption upon cytochrome c oxidation, as previously described (Brautigan et al., 1978). The reaction was carried out at 25° C. in 1.3 mL of standard respiratory medium (as in mitochondrial respiration) supplemented with 2 μM rotenone, 10 μM oxidized cytochrome c, 0.3 mg TritonX-100. Following addition of the sample, the reaction was initiated by adding 5 mM ascorbate plus 0.25 mM tetramethylphenylene-diamine (TMPD).
ATP content was measured with a commercial kit according to the manufacturer's instructions (Roche).
RNA from skeletal muscle tissue and C2C12 cells were extracted with RNeasy mini kit (Qiagen) according to the instructions and quantified using the NanoDrop 1000 spectrophotometer (Thermo Scientific). cDNA was synthesized with the iSCRIP cDNA synthesis kit (BioRad) using 600 ng of RNA. Quantitative RT-PCR reactions were performed using 1 μM of primers and LightCycler® 480 SYBR Green Master (Roche) on an LightCycler® 480 detection system (Roche). Calculations were performed by a comparative method (2-ΔCT) using 18S as an internal control. For mtDNA analysis, total DNA was extracted with DNeasy blood and tissue kit (Qiagen). mtDNA was amplified using primers specific for the mitochondrial cytochrome c oxidase subunit 2 (COX2) gene and normalized to genomic DNA by amplification of the ribosomal protein s18 (rps18) nuclear gene. Primers were designed using the IDT software (IDT) and the primer sequences can be found in Table 1.
Protein extracts from tissue or C2C12 cells were obtained by lysis in ice-cold lysis buffer (150 mM NaCl, 10 mM Tris HCl (pH 7.4), 1 mM EDTA, 1 mM EGTA, 1% Triton X-100, 0.5% NP-40) supplemented with a cocktail of protease and phosphatase inhibitors (Roche). Protein content was determined by the Bradford protein assay (Biorad), and 50 μg proteins were run on SDS-PAGE under reducing conditions. The separated proteins were then electrophoretically transferred to a polyvinylidene difluoride membrane (Perkin-Elmer). […] The immunostaining was detected using horseradish peroxidase-conjugated anti-rabbit or anti-mouse immunoglobulin for 1 h at room temperature.
NAD^+ from skeletal muscle was quantified with a commercially available kit (BioVision) according to the manufacturer's instructions and as described before (Gomes et al., 2012).
It was shown above that decreased levels of NAD^+ associated with age invokes a SIRT1 dependent pseudohypoxic response that disrupts mitochondrial homeostasis. Therefore, artificially boosting NAD^+ levels in old mice should restore mitochondrial homeostasis by reducing HIF-1α levels and restoring the expression of mitochondrial-encoded ETC components. Administration of NMN, a compound recently shown to increase NAD^+ levels in a variety of tissues (Yoshino et al., 2011), to 6- and 22-month-old C57BL/6J mice for one week increased levels of cellular NAD^+ in both the young and old mice were by 2-fold. The boost in the treated 22-month-old mice resembled the untreated 6-month-olds (FIG. 17A).

SMILES | effect on NMN-induced expression of mitochondrially-encoded ETC genes ([1]; HIF stabilizing compound added to NMN-treated cells, 1 mM DMOG or 10 μM DFO, 12 hours) | expression of mitochondrially-encoded ETC genes (ND1, CYTB, COX1, ATP6) ([1]; NMN alone, versus PBS) | expression of mitochondrial-encoded genes ([2]; gastrocnemius, qPCR, old mice) | ATP levels ([2]; gastrocnemius, old mice) | COX activity ([2]; gastrocnemius, old mice) | HIF-1α protein (immunoblot) ([2]; gastrocnemius, old mice) | VHL protein (immunoblot) ([2]; gastrocnemius, old mice) | lactate levels in the skeletal muscle ([2]; old mice) | muscle wasting markers Atrogin-1 and MuRF1 ([2]; skeletal muscle of old mice, immunoblot) | expression of inflammation markers ([2]; skeletal muscle of old mice, qPCR) | phosphorylation of AKT and IRS-1 ([2]; soleus of old mice, immunoblot) | age-induced insulin resistance in the skeletal muscle ([2]; soleus of old mice) | levels of cellular NAD+ ([2]; young and old mice) [fold]
COC(=O)CNC(=O)C(=O)OC [DMOG, dimethyloxaloylglycine] | completely abolished | – | – | – | – | – | – | – | – | – | – | – | –
NC(=O)c1ccc[n+]([C@@H]2O[C@H](COP(=O)([O-])O)[C@@H](O)[C@H]2O)c1 [NMN, nicotinamide mononucleotide] | – | induced expression | restored | increase | increase | reversed; also recorded: reduced the level of HIF-1α | reversed the age-induced decline | suppressed the increase | completely reversed | completely reversed | increasing the phosphorylation | reverse age-induced insulin resistance | 2
